The source of these data is paper PMC3651166, “Differential Cytotoxic Activity of a Novel Palladium-Based Compound on Prostate Cell Lines, Primary Prostate Epithelial Cells and Prostate Stem Cells” (PLoS ONE, 2013).

Entries after “also recorded” stand apart in the source; their conditions may differ. Read-outs that look alike come from different tables or passages of the source.

Common to all, as to format: cell-based, human
The subject of experiment [1] is BPH primary cells. In words: MTS assay, primary cultures from benign prostate hyperplasia. The text has this:
(§1) Primary prostate epithelial cells were isolated from human tissue samples. The samples were collected with ethical permission from York District Hospital (York, UK) and Castle Hill Hospital (Cottingham, UK). Benign prostatic hyperplasia (BPH) and prostate cancer samples were obtained from TURP (transurethral resection of the prostate), radical prostatectomy (laparoscopic and open) and cystectomy operations. All patients gave written consent for their tissue to be used for research and all patient samples were anonymised. Permission was approved by the Local Research Ethical Committees, associated with York District Hospital and Castle Hill Hospital. Permission was administered by the Yorkshire and Humber Research Ethics Committee.
(§2) Prostate epithelial cells were cultured as previously described in stem cell media (SCM) consisting of keratinocyte serum-free media (KSFM) with bovine pituitary extract (BPE) and epidermal growth factor (EGF), glutamine, stem cell factor (SCF), granulocyte macrophage colony stimulating factor (GM-CSF), leukaemia inhibitory factor (LIF) and cholera toxin. Cells were grown with STO feeder cells (irradiated at 60 Gy) on collagen I-coated plates.
(§3) This assay was performed for the initial screening of the effect of the Pd complex on the cell lines and the whole cell population of primary cultures. The CellTiter 96® Aqueous One Solution Cell Proliferation Assay kit (G3580, Promega, Madison, WI, USA) was used and the manufacturer’s instructions were followed. Briefly, after treating cells that were seeded at a density of 5,000 cells per well in a 96-well plate in triplicate for a desired period (24 h, 48 h, 72 h), 20 µL of reagent was added to each well. Following 2.5 h incubation at 37°C, the absorbance was read at 485 nm using a plate reader (PolarStar Optima, BMG Labtech, UK). Percent viability was calculated using the formula (% Viability = [(Sample Absorbance/Control Absorbance)]×100.
(§4) MTS and ATP assays were performed in triplicate and data presented as the mean +/− standard deviation. IC50 values (Table 3 and Table 4) were calculated from graphs of transformed data following application of the nonlinear regression (curve fit) that represents the log(inhibitor) ‘v’ normalized response (GraphPad Prism software) (Supplementary Figures S1 and S2). For significance calculations, the Wilcoxon rank sum test was used (Sigmaplot). Flow cytometry analysis was carried out in triplicate and results are presented as an average with error bars indicating the standard error.

Experiment [2] deals with PCa Primary cells (Gl7). In words: MTS assay, primary cultures from prostate carcinoma Gleason 6/7.
From the text: as §1, §2, §3, §4
In general terms: Formazan colour is commonly taken as a measure of viable cells.

Experiment [3] deals with primary cultures from BPH and Gleason 6/7 cancers. In words: MTS assay, primary cultures BPH and Gleason 6/7 together.
From the text: as §1, with “Committee. […]” for “Committee.”
This assay was performed for the initial screening of the effect of the Pd complex on the cell lines and the whole cell population of primary cultures. […] Following 2.5 h incubation at 37°C, the absorbance was read at 485 nm using a plate reader (PolarStar Optima, BMG Labtech, UK). Percent viability was calculated using the formula (% Viability = [(Sample Absorbance/Control Absorbance)]×100.

Experiment [4] deals with γH2AX nuclear foci. In words: γH2AX immunofluorescence, DNA damage in primary cultures. Conditions: 48 h. The procedure:
γH2AX staining: Cells were seeded onto 8-well collagen I-coated chamber slides. […] After blocking of non-specific binding with 2% BSA in PBS with 1% goat serum for 1 hour at RT, primary antibody (anti-phospho-histone H2A.X (Ser139), clone JBW301, Millipore, Cat no. 05–636) at 1∶1000 dilution was added in 3% BSA in PBS at 4°C overnight followed by three washes in 0.5% BSA in PBS with 0.175% Tween 20. Following incubation with secondary antibody (Goat anti-mouse Alexa Fluor 568, Invitrogen, Cat no. A-11004) at 1∶1000 dilution for 45 min in 3% BSA in PBS and three more washes in the same washing buffer, the slides were mounted using Vectashield with DAPI (Vector Laboratories, Cat no. H-1200). LC3-B staining: Cells were treated as above then fixed with 4% paraformaldehyde, followed by an incubation in 0.3% Triton X-100. After blocking with 10% normal goat serum, cells were incubated in anti-LC3B 1∶200 (Ab51520, abcam) diluted in 0.1% Triton X-100 in PBS. […]
Since the mechanism of action of the Pd complex has not been fully characterized, the DNA-damaging effect was assessed. […] Nuclei with evidence of γH2AX nuclear foci, indicative of DNA damage, were counted on 10 randomly chosen fields at the highest (63x) magnification and the mean number of positively-stained nuclei was calculated. At least 100 cells per well were counted.

In experiment [5] the test system is cleaved caspase-3. In words: Western blotting for apoptosis, primary cultures. The procedure: Following drug treatment, cell lysates were harvested using Cytobuster Protein Extraction Reagent (71009, EMD Millipore, Darmstadt, Germany) with protease inhibitors (cOmplete, EDTA-free Protease Inhibitor Cocktail Tablets, Roche Applied Science, UK). 20 µg of protein extract were loaded on 12% SDS-PAGE gels and wet-transferred to a PVDF membrane. Antibodies used include: monoclonal anti-β-actin 1∶5000 (A5316, Sigma-Aldrich), anti-LC3B 1∶3000 (Ab51520, abcam), cleaved caspase-3 (Asp175) 1∶1000 (9661S, Cell Signaling Technology) and secondary antibodies were Rabbit anti-mouse-HRP 1∶10000 (P0260, Dako) and anti-rabbit IgG HRP-linked 1∶5000 (Cell Signaling Technology Inc. 7074S). Kaleidoscope protein marker was run on each gel (161-0324, Bio-Rad).
(In western blotting, separated proteins are transferred to a membrane and probed.)

Experiment [6] relates to LC3-II. In words: Western blotting and immunofluorescence for autophagy, primary cells. Conditions: all primary cells. The procedure:
γH2AX staining: Cells were seeded onto 8-well collagen I-coated chamber slides. […] After blocking of non-specific binding with 2% BSA in PBS with 1% goat serum for 1 hour at RT, primary antibody (anti-phospho-histone H2A.X (Ser139), clone JBW301, Millipore, Cat no. 05–636) at 1∶1000 dilution was added in 3% BSA in PBS at 4°C overnight followed by three washes in 0.5% BSA in PBS with 0.175% Tween 20. Following incubation with secondary antibody (Goat anti-mouse Alexa Fluor 568, Invitrogen, Cat no. A-11004) at 1∶1000 dilution for 45 min in 3% BSA in PBS and three more washes in the same washing buffer, the slides were mounted using Vectashield with DAPI (Vector Laboratories, Cat no. H-1200). LC3-B staining: Cells were treated as above then fixed with 4% paraformaldehyde, followed by an incubation in 0.3% Triton X-100. After blocking with 10% normal goat serum, cells were incubated in anti-LC3B 1∶200 (Ab51520, abcam) diluted in 0.1% Triton X-100 in PBS. Secondary antibody was Alexa Fluor 568 goat anti-rabbit IgG 1∶1000 (Invitrogen A11011).

On to [PdCl(terpy)](sac)⋅2 H2O [Pd complex], for which the IC50 (usually the point on the concentration scale where inhibition reaches its midpoint) in experiment [1] (BPH primary cells, sample 1608, 72 h, read-out: IC50) amounted to 5.97 µM; in experiment [1] (BPH primary cells, sample 3108, 72 h, read-out: IC50), 7.33 µM; in experiment [1] (BPH primary cells, sample 7611, 72 h, read-out: IC50), 6.97 µM; in experiment [1] (BPH primary cells, sample 8109, 72 h, read-out: IC50) it was 14.4 µM; in experiment [1] (average of BPH primary cells, 72 h, read-out: IC50 AVERAGE), 8.67 µM; in experiment [2] (PCa primary cells (Gl7), sample 06211rb, 72 h, read-out: IC50) it was 11.1 µM. Further, the IC50 in experiment [2] (PCa primary cells (Gl7), sample 06411lb, 72 h, read-out: IC50) was 5.2 µM; in experiment [2] (PCa primary cells (Gl7), sample 06411ra, 72 h, read-out: IC50) it was 3.78 µM; in experiment [2] (PCa primary cells (Gl7), sample 06611lb, 72 h, read-out: IC50) it was 13.1 µM; in experiment [2] (PCa primary cells (Gl7), sample 06711rb, 72 h, read-out: IC50), 8.24 µM; in experiment [2] (PCa primary cells (Gl7), sample 07011la, 72 h, read-out: IC50), 5.36 µM; in experiment [2] (PCa primary cells (Gl7), sample 07011lb, 72 h, read-out: IC50), 6.03 µM. For the same substance, the concentration for half-maximal inhibition (IC50) in experiment [2] (PCa primary cells (Gl7), sample 07311ra, 72 h, read-out: IC50) is 5.37 µM; in experiment [2] (PCa primary cells (Gl7), sample 22412, 72 h, read-out: IC50), 6.3 µM; in experiment [2] (average of PCa primary cells (Gl7; Gleason 6/7), 72 h, read-out: IC50 AVERAGE), 7.16 µM. The “reduction of cell viability compared to etoposide” value in experiment [1] (benign samples, both at 25 µM, 72 h, median values) was “at least 5.6 fold”; in experiment [2] (malignant samples, both at 25 µM, 72 h, median values) it was 10.66 fold. Also, the “concentrations having a significant anti-growth effect on all samples” value in experiment [3] (BPH and Gleason 6/7 samples, 72 h) is “higher than 6.25”. Also, in experiment [3] (primary cultures, previous experiments (MTS)), the “lowest concentration inducing a significant anti-growth effect” value amounted to 6.25 µM. The “level of DNA damage (γH2AX nuclear foci)” value is on record as “did not induce a significant level of DNA damage” in experiment [4] (3.12 µM); “same level of DNA damage” in experiment [4] (etoposide and Pd complex at the same dose, primary cultures from prostate carcinoma). Moreover, the “cleaved caspase-3 (apoptosis)” value in experiment [5] (BPH primary sample) is “only a positive result with the BPH sample at a low dose”; in experiment [5] (primary cancer samples), “no evidence of cleaved caspase-3; also recorded: No apoptosis was induced”. Moreover, the “LC3-II (autophagy)” value in experiment [6] is recorded as “clear increase in LC3-II”.
